Structure (SMILES) | melting point [°C]
Cc1c(F)cc(C(=O)NC2CC2)cc1-c1nc(NC(CO)CO)nc2c1ccc(=O)n2-c1c(F)cccc1F [Example 49, N-cyclopropyl-3-(8-(2,6-difluorophenyl)-2-{[2-hydroxy-1-(hydroxymethyl)ethyl]amino}-7-oxo-7,8-dihydropyrido[2,3-d]pyrimidin-4-yl)-5-fluoro-4-methylbenzamide] | 214.2 to 217.5
CSc1nc(-c2cc(C(=O)N(C)C)ccc2C)c2c(n1)N(c1c(F)cccc1F)C(=O)NC2 [Example 73, 3-[8-(2,6-difluorophenyl)-2-(methylthio)-7-oxo-5,6,7,8-tetrahydropyrimido[4,5-d]pyrimidin-4-yl]-N,N,4-trimethylbenzamide] | 144 to 147
